# Assays:
# [1] = test system: S. cerevisiae (backgrounds W303 and BY4741); test: antimicrobial serial microdilution, S. cerevisiae; type: cell-based, Saccharomyces cerevisiae; conditions: Saccharomyces cerevisiae; serial microdilution, 35 °C, 48 h; read-out: MIC S. cerevisiae
# Procedure: (§1) The in vitro antifungal and antimicrobial activities were determined by testing the Schiff bases against the fungi Saccharomyces cerevisiae, Candida albicans, and Aspergillus niger and the bacteria Staphylococcus aureus, Enterococcus faecalis (Gram-positive), Pseudomonas aeruginosa, and Escherichia coli (Gram-negative).
# (§2) The bacterial inoculum was prepared by emulsifying overnight colonies from an agar medium in broth (Mueller–Hinton broth). The suspensions were adjusted to a final organism density of 5 × 10^5 colony former units (cfu)/mL. […] The emulsifying of A. niger cultures was done by pouring 5 mL of saline and 0.1% of polysorbate 80 over the Petri dishes. Then, 100 µL of this suspension were diluted in 5 mL of saline and adjusted to an optical density of 0.1 at 530 nm. For S. cerevisiae, fresh exponential YPAD (yeast extract 1%, peptone 2%, adenine 0.004%, […]) cultures were adjusted to an optical density of 0.5 at 600 nm, and then diluted to the equivalent of 1 × 10^4 cells/mL (10^−3 dilution). Stock solutions of Schiff bases were prepared by dissolving them in DMSO at 10 mg/mL. […] The range of concentrations used was empirically selected for each organisms and the Schiff base. Drug sensitivities were assayed by serial dilutions in 96-well plates as previously described. A row with media and cells but without drug was the positive control. The blank was done by preparing a row with media and drugs, but without cells. Plates were fitted with a tight lid before incubation to prevent desiccation. […] The minimum bactericidal concentration (MBC) and fungicidal concentration (MFC) were determined by spreading 100 µL of culture from each well onto a plate (Mueller–Hinton agar for bacteria, Sabouraud dextrose agar for fungi except S. cerevisiae, and YPAD for S. cerevisiae).
# [2] = test system: Candida albicans ATCC 10231; test: antimicrobial serial microdilution, C. albicans; type: cell-based; conditions: serial microdilution, 35 °C, 48 h
# Procedure: as §1, §2
# [3] = test system: Escherichia coli ATCC 25922; test: antimicrobial serial microdilution, E. coli; type: cell-based; conditions: serial microdilution, 37 °C, 24 h
# Procedure: as §1, §2
# RAW 264.7 cells = test: cell viability, MTT dye assay; type: cell-based, murine; conditions: RAW 264.7, exposure to 400 µM, 48 h
# Procedure: The specificity and selectivity for the pathogen target is a key point for any potential drug.
# The medium was renewed once a week. The viability was determined using MTT (thiazolyl blue tetrazolium bromide) dye assay as described previously for leishmanicidal activity assessment, with some variations. Here, 5 × 10^4 cells/well in a final volume of 100 µL were deposited into a 96-well plate in triplicate. Saponin (2 and 4 mg/mL) and untreated cells were used as the positive control and negative control, respectively. Schiff bases were dissolved in DMSO to obtain different serial concentrations (0.01–2000 µM). […] Cells were pelleted by centrifugation at 4400 rpm for 10 minutes and the media was removed. Next, 100 µL/well of DMSO were added and the absorbance at 570 nm was recorded. A reference wavelength of 630 nm was used for background subtraction.
# [4] = test system: Staphylococcus aureus ATCC 29213; test: antimicrobial serial microdilution, S. aureus; type: cell-based; conditions: serial microdilution, 37 °C, 24 h
# Procedure: as §1, §2
# [5] = test system: promastigotes from L. mexicana (M379); test: leishmanicidal activity, MTT colorimetric assay; type: cell-based; conditions: Leishmania mexicana, 48 h exposure, 1% DMSO
# Procedure: Leishmanicidal activities of all Schiff bases were evaluated by measuring promastigote mitochondrial activity using MTT colorimetric assay as described previously. […] The medium was renewed every four days. Parasite density was determined in a Neubauer chamber.
# Into each well of a 96-well cell culture dish was dispensed 1 × 10^6 parasites. A stock solution of each of the Schiff Base was prepared in DMSO, and serial dilutions were added to the parasite suspension, keeping the solvent concentration at 1%. The final volume was 100 µL for each well and triplicate conditions were carried out. Pentamidine treatment (100 µg/mL) and untreated parasites were used as positive control and negative control, respectively. After exposure to the compounds for 48 h in culture medium, 10 µL of a solution of 5 mg/mL MTT dissolved in PBS was added to each well. […] Later, the plate was centrifuged at 4400 rpm for 10 min and the culture medium was then aspirated. Next, 100 µL of DMSO were added into each well to solubilize the formazan and the plate was shaken for 5 min. The colored formazan salt was measured by recording changes in absorbance at 570 nm using a microplate reader, a BioTek Synergy HT spectrophotometer. A reference wavelength of 630 nm was used to subtract background. Optical densities were analyzed as the quantity of formazan is directly proportional to the number of viable parasites. Data were analyzed with the statistical software GraphPad Prism.
# [6] = test system: Enterococcus faecalis ATCC 29212; test: antimicrobial serial microdilution, E. faecalis; type: cell-based; conditions: serial microdilution, 37 °C, 24 h
# Procedure: as §1, §2
# [7] = test system: Aspergillus niger ATCC 6275; test: antimicrobial serial microdilution, A. niger; type: cell-based; conditions: serial microdilution, 35 °C, 48 h; for MIC: 96-well plates, max 2% DMSO
# Procedure: as §1, §2
# P. aeruginosa ATCC 27853 = test: antimicrobial serial microdilution, P. aeruginosa; type: cell-based; conditions: Pseudomonas aeruginosa, ATCC27853, 37 °C, 24 h
# Procedure: as §1, §2
# [8] = DPPH radical scavenging assay; type: biochemical; conditions: 30 min, room temperature, dark, absorbance 515 nm
# Procedure: This was used immediately. The experimental procedure was adapted from the literature. Briefly, in a 96-well plate, 100 µL of solution of DPPH (2, 2-diphenyl-1-picrylhydrazyl) radical (0.2 mM in methanol) was added to 100 µL of methanolic solutions of 3a–j, 4, or 5, prepared as serial two-fold dilutions from the stock solution. Standards were also prepared in the same concentrations.
# The percentage of DPPH scavenging was then calculated by using the following formula: % DPPH scavenging=100∗Asample+DPPH−Asample blank/ADPPH−Asolvent
# [9] = carcinogenicity group; ref IARC; cited from earlier work
# [10] = Staphylococcus aureus, ATCC29213
# [11] = Enterococcus faecalis, ATCC29212
Compound,"MIC ([2]; Candida albicans, ATCC10231)","MIC ([3]; Escherichia coli, ATCC25922)","MIC [4, 10]",IC50 [5],"MIC [6, 11]","MIC ([7]; Aspergillus niger, ATCC6275)",MIC (P. aeruginosa ATCC 27853),IC50 [8],other results
"Cc1c(N=Cc2ccc(O)c(O)c2)c(=O)n(-c2ccccc2)n1C [Compound 3i, 4-(3,4-Dihydroxybenzylideneamino)-1,5-dimethyl-2-phenyl-1H-pyrazol-3(2H)-one]",> 200 µg/mL,> 200 µg/mL,> 200 µg/mL,> 200 µM,> 200 µg/mL,> 200 µg/mL,> 200 µg/mL,18.9 ± 2.4 µM,MIC [1]: > 200 µg/mL; % Live Cells (RAW 264.7 cells): 34.4 ± 2.4%
"C[C@@H](c1ncncc1F)[C@](O)(Cn1cncn1)c1ccc(F)cc1F [VR, voriconazole, reference compound]",29.7 ± 3.52 µg/mL,,,,,1.2 ± 0.05 µg/mL,,,"IC50 ([2]; Candida albicans, ATCC10231): 0.9 µg/mL; NIC C. albicans ([2]; noninhibitory concentration): 0.00 ± 0.00 µg/mL; IC50 ([7]; Aspergillus niger, ATCC6275): 0.2 µg/mL; NIC A. niger ([7]; noninhibitory concentration): 0.05 ± 0.01 µg/mL"
N.N.[Cl][Pt][Cl] [Cisplatin],,,,,,,,,IARC: group of classification of IARC [9]: 2A
"O=C1O[C@H]([C@@H](O)CO)C(O)=C1O [ascorbic acid, reference compound]",,,,,,,,14.5 ± 2.2 µM,
"Cc1c(/N=C/c2ccco2)c(=O)n(-c2ccccc2)n1C [Compound 4, 4-(2-furfurilideneamino)-1,5-dimethyl-2-phenyl-1H-pyrazol-3(2H)-one]",> 200 µg/mL,> 200 µg/mL,> 200 µg/mL,> 200 µM,> 200 µg/mL,> 200 µg/mL,> 200 µg/mL,> 200 µM,MIC [1]: > 200 µg/mL; % Live Cells (RAW 264.7 cells): 23.8 ± 3.4%
"O=C(O)c1cn(C2CC2)c2cc(N3CCNCC3)c(F)cc2c1=O [CP, ciprofloxacin, reference compound]",,0.15 ± 0.009 µg/mL,0.44 ± 0.09 µg/mL,,1.15 ± 0.42 µg/mL,,0.47 ± 0.1 µg/mL,,"IC50 ([3]; Escherichia coli, ATCC25922): 0.07 µg/mL; NIC E. coli ([3]; noninhibitory concentration): 0.06 ± 0.003 µg/mL; IC50 [4, 10]: 0.1 µg/mL; NIC S. aureus ([4]; noninhibitory concentration): 0.06 ± 0.02 µg/mL; IC50 [6, 11]: 0.49 µg/mL; NIC E. faecalis ([6]; noninhibitory concentration): 0.30 ± 0.07 µg/mL; IC50 (P. aeruginosa ATCC 27853): 0.94 µg/mL"
Cc1c(N)nc([C@H](CC(N)=O)NC[C@H](N)C(N)=O)nc1C(=O)N[C@H](C(=O)N[C@H](C)[C@@H](O)[C@H](C)C(=O)N[C@H](C(=O)NCCc1nc(-c2nc(C(=O)NCCC[S+](C)C)cs2)cs1)[C@@H](C)O)[C@@H](OC1OC(CO)C(O)C(O)C1OC1OC(CO)C(O)C(OC(N)=O)C1O)c1cnc[nH]1 (stereo partly drawn) [Bleomycin],,,,,,,,,IARC: group of classification of IARC [9]: 2B
"O=C(O)/C=C/c1ccc(O)c(O)c1 [caffeic acid, reference compound]",,,,,,,,16.2 ± 2.4 µM,
"C[C@@H]1[C@H](O)[C@@H](C)/C=C/C=C/C=C/C=C/C=C/C=C/C=C/[C@H](O[C@@H]2O[C@H](C)[C@@H](O)[C@H](N)[C@@H]2O)C[C@@H]2O[C@](O)(C[C@@H](O)C[C@@H](O)[C@H](O)CC[C@@H](O)C[C@@H](O)CC(=O)O[C@H]1C)C[C@H](O)[C@H]2C(=O)O [AP, amphotericin, reference compound]",,,,0.18 ± 0.07 µM,,,,,

# From publication PMC6696115, “Characterization of Antimicrobial, Antioxidant, and Leishmanicidal Activities of Schiff Base Derivatives of 4-Aminoantipyrine” (Molecules, 2019)
